Key:
[1] = test system: iPSC-SkMC; assay: Utrophin immunofluorescence in iPSC-SkMC; assay type: cell-based, human; conditions: vs AGR-Scr, n = 5
Experimental: For myogenic differentiation, iPSCs were differentiated into skeletal muscle cells using Skeletal Muscle Differentiation Kit (Genea Biocells) according to the manufacturer’s protocol. Briefly, iPSCs were plated onto a collagen I coated plate and maintained for 6–10 days in Skeletal Muscle Induction Medium (Genea Biocells) until confluent. Dissociated myogenic precursors were then plated on a collagen I coated plate and cultured in Skeletal Myoblast Medium (Genea Biocells) for 6–8 days. When confluent, cells were maintained in Myotube Medium or Myotube Fusion Medium (Genea Biocells). Cryopreserved stocks of myoblasts Genea002 were obtained from Genea Biocells. […]
Skeletal muscles were collected and fixed in 10% Neutral Buffered Formalin at 4 °C for 1 h, followed by 10% sucrose/PBS overnight and then 18% sucrose/PBS overnight at 4 °C before being frozen embedded and sectioned. […] Muscle cross-sectional area and fiber numbers were quantified by ImageJ. […] The quantification of IF staining density was performed by Image-pro plus 6.0 (Media Cybernetics) and calculated based on the average staining intensity and the percentage of positively stained cells. To quantify myotube fusion, fusion index was calculated by dividing the number of nuclei in MHC-positive myotubes with ≥ 3 nuclei by the total number of nuclei analyzed in a field.

[2] = test system: C57BL/6 J mice; assay: Run-to-exhaustion and sprint treadmill tests; assay type: in vivo, mouse
Experimental: Exhaustion treadmill running and sprint running were used to evaluate the physiological activity of the mice. The mice were repeatedly exercised twice weekly for 2 weeks using a treadmill (Ugo Basile, 57631, Stoelting). For the animal exercise, mice were placed on the horizontal treadmill starting at 5 m/min and kept on for about 10 min. The speed was then increased to 10 m/min for the remaining 30 min. Treadmill training was […] and followed a standardized protocol. When performing the speed test, the mice were placed on a treadmill with a 15° incline. We increased the speed from 6 m/min to 26 m/min at increments of 2 m/min, which each increment lasting 2 min. Mice were considered to have reached the point of exhaustion when they made contact with the grid for a period of time greater than 5 s. The running speed of the mice was recorded and the animals were returned to their cages once exhausted. For the sprint test: the sprint regimen consisted of mice warming up for 3 min at 6 m/min on a 0° incline, followed by a 2 min run at the same speed with a 15° incline. Subsequent runs were performed at a 15° incline. Speed was first increased to 14 m/min for 30 s, followed by 1.5 min of low speed running at 6 m/min. The speed was then increased to 18 m/min for 30 s. Afterwards, we increased the speed from 18 m/min to 24 m/min at 2 m/min increments, with each increment lasting 15 s […]. After that, the mice continued interval running at 6 m/min for 3 min, followed by an increase in the speed from 20 m/min to 32 m/min at 4 m/min increments, with each increment lasting 15 s. This pattern of exercise continued with subsequent intervals running at 6 m/min for 3 min, followed by a sharp increase in speed from 22 m/min to 34 m/min at 4 […], with each increment lasting 15 s. This pattern was repeated with increasing speed until the mice could no longer keep up and gave up on the grid.

[3] = test system: C57BL/6 J mice; assay: Oxymax/CLAMS metabolic cage study; assay type: in vivo, mouse; conditions: n = 4
Experimental: Whole-body composition parameters were measured in male and female mice fed with either chow or HFD by Faxitron Specimen Radiography System (Faxitron X-Ray Corp.) to precisely measure total body fat and lean mass. Mice were housed in the Oxymax/CLAMS metabolic cage system (Columbus Instruments) for 4 days with ad libitum access to food and water. Volume of oxygen uptake (VO2) and exhaled carbon dioxide (VCO2), respiratory exchange ratio (RER), and activity were measured using the Oxymax system. RER is determined by dividing VCO2 produced by VO2 consumed.

[4] = test system: C57BL/6 J mice; assay: Forelimb grip strength test; assay type: in vivo, mouse; conditions: vs AGR-Scr
Experimental: A grip strength meter (Columbus Instruments) was used to measure the forelimb grip strength as previously reported. The grid was attached to a force transducer to measure the maximum force applied by the mouse on the grid during the pull. The body weight of the mice was recorded prior to the test and the units of force were calculated in grams-of-force.

[5] = test system: C57BL/6 J mice; assay: Blood analyses (serum lipids, hormones, ALT, AST)
Experimental: Whole blood was collected by tail bleeding from un-anesthetized mice or cardiac puncture from mice under deep terminal anesthesia. Mice have been fasted for 4–6 h before blood collection. Total cholesterol (TC) and triglycerides (TG) were determined by enzymatic assays using commercial kits (BioAssay Systems). Alanine aminotransferase (ALT) and aspartate aminotransferase (AST) levels were measured using Alanine Transaminase Colorimetric Activity Assay Kit (700260, Cayman Chemical) and EnzyChrom Aspartate Transaminase Assay Kit (EASTR-100, BioAssay Systems). Serum levels of leptin (ELM-Leptin-1, RayBiotech), IGF1 (RAB0229, Sigma), IGF2 (RAB0231, Sigma), insulin (90080, Crystal Chem), and testosterone (KGE010, R&D) were measured by ELISA assay according to the manufacturer’s instructions.

[6] = HFD-fed mice, vs AGR-Scr, n = 5

“N-terminal-ELTNEIPAELTNEIPA-Linker-5'-[2’-F-C][2’-F-U][2’-F-C][2’-F-U][2’-F-U][2’-F-U][2’-F-A][2’-F-U][2’-F-U][2’-F-U][2’-F-C][2’-F-U][2’-F-G][2’-F-A][2’-F-G][2’-F-C][2’-F-U][2’-F-U][2’-F-U][2’-F-C][2’-F-C][2’-F-U][2’-F-A][2’-F-U][2’-F-C][2’-F-U][2’-F-U][2’-F-U][2’-F-C][2’-F-C]-3' [AGR-H19-Rgof]” was tested, and the utrophin protein status [1] was “elevated”, the running speed [2, 6] was “elevated” and the total running time [2, 6] was “elevated”. The “running speed, treadmill exhaustion test” value ([2]; WT male and female mice, vs Scr-treated controls, n = 15) was “increased speed”, the “maximum running speed, sprint interval treadmill” value ([2]; WT male and female mice, vs control, n = 10) was “elevated” and the overall food intake ([3]; HFD-fed male mice, vs AGR-Scr) was “similar”. The energy expenditure ([3]; HFD-fed mice, CLAMS) was “elevated”, the total activity ([3]; HFD-fed mice, CLAMS, vs AGR-Scr) was “similar” and the activity per day/night ([3]; WT male mice on chow, CLAMS, vs control) was “not significantly altered”. The total food intake ([3]; WT male mice on chow, vs control) was “not significantly altered”, the “respiratory exchange ratio (RER)” value ([3]; WT mice on chow, CLAMS, vs AGR-Scr) was “elevated” and the “force output, forelimb grip strength test” value ([4]; HFD-fed mice, n = 5) was “increased force output”. For the same substance, the “forelimb grip strength, average force” value ([4]; WT male and female mice, n = 8) was “increased average force”, the serum triglyceride concentrations ([5]; HFD-fed male mice, n = 10, 7) was “reduced” and the IGF1 concentration ([5]; HFD-fed male mice, serum) was “unaltered”. For the same substance, the IGF2 concentration ([5]; HFD-fed male mice, serum) was “unaltered”, the total cholesterol ([5]; HFD-fed mice, n = 10, 9) was “reduced” and the leptin ([5]; HFD-fed mice, serum, n = 7, 7) was “reduced”. The total cholesterol ([5]; WT mice on chow, serum, vs AGR-Scr, n = 5) was “reduced” and the serum triglyceride concentrations ([5]; WT mice on chow, vs AGR-Scr, n = 7) was “reduced”.

From paper PMC8403366, “Functional significance of gain-of-function H19 lncRNA in skeletal muscle differentiation and anti-obesity effects” (Genome Medicine, 2021)
